# Measured values from patent publication EP4813463A2, “TYK2 INHIBITORS AND COMPOSITIONS AND METHODS THEREOF” (Lynk Pharmaceuticals Co. Ltd., priority 2023, dated 2024).
# Like-named read-outs stand apart in the source and are kept apart here.
# Key:
# [1] = Mice colon pharmacokinetic studies; type: in vivo; conditions: mouse, female Balb/c mice, oral gavage, 10 mg/kg; for half-life: read-out: Plasma T1/2 (converted)
# Description: Pharmacokinetic studies were investigated using female Balb/c mice to determine plasma and colon exposure of tested compounds. Compounds were administrated via oral gavage in a formulation of 0.5% Methocel (A4M) + 0.1% Tween80 in water to Balb/c mic. Animals were anesthetized at the designated time points, plasma, colon tissue and colonic contents samples were collected. Tissue samples were homogenized using MeOH : PBS(1:1). All samples were analyzed by LC-MS/MS.
# [2] = tested on: T cell transfer colitis model; assay: SCID mice colitis by T cell transfer pharmacodynamics study; type: in vivo, C.B17-SCID mice
# Description: This study aimed to obtain the pharmacodynamics of the test article in T cell transfer colitis model after oral administration. For induction of colitis, naive CD4^+ T cells (CD4^+CD44^lowCD62L^high) were adoptively transferred from MHC-compatible Balb/c mice to C.B17-SCID recipients. Balb/c splenocytes were […] selected for CD4^+ T cells using the Mouse Naïve CD4^+ T Cell Isolation Kit (Cat #19765, […]), 1.5×10^6 cells in a volume of 100 µL PBS were transferred to each recipient by i.v. injection on Day 0. C.B17-SCID mice obtained from the Beijing Vital River Laboratory Animal Technology Co., Ltd. Starting on Day 0 and continuing daily through Day 32, mice (n = 8 per group) were dosed with 0 (vehicle control), 45 mg/kg PO BID compound 7A in a vehicle containing 5% DMSO, 65% PEG400, and 30% DDH2O (v/v/v).
# Each mouse was scored three times weekly for pathological features, including stool consistency, and body weight loss. Individual scores were combined to generate the DAI, the maximum score was 6. At the termination of the study, the colon was collected for measuring colon index (weight, length, and density), emptied of fecal contents opened longitudinally along the mesenteric border, and formed a Swiss-Roll from the proximal to the distal end, processed to paraffin-embedded blocks to generate 5-µm-thick sections for hematoxylin and eosin (H&E) staining. Slices were evaluated in a blinded manner and histological scores were assessed based on the following parameters: inflammation, epithelial defects, crypt atrophy, dysplasia, and the area affected by dysplasia.
# [3] = Brain pharmacokinetic studies in dogs; type: in vivo, Beagle dogs; conditions: for AUC / Kp: Beagle dogs, iv, 2 mg/kg, solution; for AUC: AUC0-4h; for Kp: read-out: Brain AUC/Systemic AUC; for brain exposure in Dogs: result in words
# Description: Pharmacokinetic profiles of test articles were evaluated in Beagle dogs. Different kinds of formulations were designed to ensure test articles fully dissolved and wouldn't precipitate in 1:10 SGF or FaSSIF dilution. The animal was restrained manually at the designated time points, approximately 500 µL of blood sample was collected via cephalic vein into K2EDTA tubes. The blood samples were maintained in wet ice first and centrifuged to obtain plasma (2000g, 4°C, 5 min) within 15 minutes post sampling. The animal was euthanized with pure […] inhalation. Shave the hair on the back of head and neck, and clean the skin of the area with iodine and 75% ethanol. Inject about 4-5 L saline from carotid artery for perfusion. Brain was collected after the perfusion fluid (saline) was gradually clarified. Dry the tissue on filtrate paper on ice, and then weigh the brain tissue and store at -70°C for later analysis. […] Table 15. Systemic Pharmacokinetic Parameters in Beagle Dogs
# [4] = Pharmacokinetic study in dogs; type: in vivo; conditions: dog, plasma; Beagle dogs, intravenous, 2 mg/kg, solution
# Description: (§1) Pharmacokinetic profiles of test articles were evaluated in fasted mouse, Sprague-Dawley rats and Beagle dogs. After dosing, blood samples were collected at each time point. For IV injection group, time points were set at 5, 15, 30 min, and then 1, 2, 4, 8 and 24 hours after dosing. For oral gavage group,#time points were set at 15, 30 min, and then 1, 2, 4, 8, and 24 hours. Blood was collected into appropriately labeled tubes containing K2EDTA as the anticoagulant. Plasma was obtained within 1 hours of blood collection by centrifugation at 8000×g and 4 °C for 6 minutes, and then stored at -20 °C until analyzed by LC/MS/MS for quantification. PK parameter values, including, but not necessarily limited to, the maximum plasma concentrations (Cmax), the time to reach the maximum concentrations (Tmax), and the area under the plasma concentration vs. time curve (AUC) from time zero to 24-hour (AUC0-24h) were determined using WinNonlin program. Table 17. Pharmacokinetic Parameters in Beagle dogs by Intravenous Administration
# [5] = Pharmacokinetic study in mice; type: in vivo; conditions: mouse, plasma, solution
# Description: as §1
# [6] = plasma, read-out: Plasma AUC0-24
# [7] = colon tissue, read-out: Colon AUC0-24
# [8] = colonic contents, read-out: Colon content AUC0-24
# [9] = 45mpk PO BID, Day 0 through Day 32, mean ± SEM, n = 8
# [10] = dog, systemic (plasma), read-out: AUC
structure (smiles),measurement,setting,value
"[2H]C([2H])([2H])NC(=O)c1cnc(NC(=O)C2CC2)cc1Nc1cnn2ccc([C@H](O)C(F)(F)F)c(OC)c12 [Example 7A, (S)-6-(cyclopropanecarboxamido)-4-((4-methoxy-5-(2,2,2-trifluoro-1-hydroxyethyl)pyrazolo[1,5-a]pyridin-3-yl)amino)-N-(methyl-d3)nicotinamide]",Cmax,[1]; plasma,426 ng/mL
same,Tmax,[1]; plasma,0.25 h
same,AUC(0-t),[1]; [6],0.599 µg·h/mL
same,half-life,[1]; plasma,1.75 h
same,AUC(0-t),[1]; [7],45.8 µg·h/mL
same,AUC(0-t),[1]; [8],1430 µg·h/mL
same,Colon density,[2]; [9],27.66 ± 1.24 mg/cm
same,Colon length (cm),[2]; [9],7.94±0.32 cm
same,Colon weight,[2]; [9],218.38 ± 10.13 mg
same,Spleen index,[2]; [9],3.08 ± 0.36 mg/g
same,disease-related weight loss,"[2]; FIG. 2. A, result in words",inhibiting
same,DAI scores,"[2]; FIG. 2. B, result in words",inhibiting
same,absolute value of Th1 and Th17 cells,"[2]; FIG. 3. B-C, result in words",significantly reduced
same,percentage value of CD4^+T cells and Th17 cells in whole blood,"[2]; FIG. 3. D-E, result in words",significantly reduced
same,CD4^+T cells in colonic tissue,"[2]; FIG. 4. A, result in words",significantly reduced
same,colonic histopathological changes,"[2]; FIG. 4. B, result in words",inhibiting
same,colitis symptoms,"[2]; orally twice daily, result in words",alleviated colitis symptoms
"COC(=O)c1cnc(NC(=O)C2CC2)cc1Nc1nn(C)c2ccc([C@H](OC)C(F)(F)F)c(OC)c12 [Example 45B, Methyl (S)-6-(cyclopropanecarboxamido)-4-((4-methoxy-1-methyl-5-(2,2,2-trifluoro-1-methoxyethyl)-1H-indazol-3-yl)amino)nicotinate]",AUC,[3]; brain,1963 ng·h/g
same,Kp,"[3]; dog, brain",1.12
same,AUC,[3]; [10],1.76 µg·h/mL
same,brain exposure in Dogs,[3],good brain exposure
"[2H]C([2H])([2H])NC(=O)c1cnc(NC(=O)C2CC2)cc1Nc1nn(C)c2ccc([C@H](O)C(F)(F)F)c(OC)c12 [Example 49A, (S)-6-(cyclopropanecarboxamido)-4-((4-methoxy-1-methyl-5-(2,2,2-trifluoro-1-hydroxyethyl)-1H-indazol-3-yl)amino)-N-(methyl-d3)nicotinamide]",Cmax,[1]; plasma,1340 ng/mL
same,Tmax,[1]; plasma,0.25 h
same,AUC(0-t),[1]; [6],1.22 µg·h/mL
same,half-life,[1]; plasma,1.03 h
same,AUC(0-t),[1]; [7],21.3 µg·h/mL
same,AUC(0-t),[1]; [8],1590 µg·h/mL
"[2H]C([2H])([2H])O[C@@H](c1ccc2c(c(Nc3cc(NC(=O)C4CC4)ncc3C(=O)OC)nn2C)c1OC)C(F)(F)F [Example 50B, Methyl (S)-6-(cyclopropanecarboxamido)-4-((4-methoxy-1-methyl-5-(2,2,2-trifluoro-1-(methoxy-d3)ethyl)-1H-indazol-3-yl)amino)nicotinate]",AUC,[3]; brain,1856 ng·h/g
same,Kp,"[3]; dog, brain",1.36
same,AUC,[3]; [10],1.37 µg·h/mL
same,brain exposure in Dogs,[3],good brain exposure
"[2H]C([2H])([2H])NC(=O)c1cnc(NC(=O)C2CC2)cc1Nc1nn(C)c2ccc([C@H](OC([2H])([2H])[2H])C(F)(F)F)c(OC)c12 [Example 55A, (S)-6-(cyclopropanecarboxamido)-4-((4-methoxy-1-methyl-5-(2,2,2-trifluoro-1-(methoxy-d3)ethyl)-1H-indazol-3-yl)amino)-N-(methyl-d3)nicotinamide]",AUC,[4],9.98 µg·h/mL
same,Vd,[4],0.678 L/kg
same,clearance,[4],3.52 mL/min/kg
same,half-life,[4],3.64 h
same,AUC,"[5]; intravenous, 3 mg/kg",7.6 µg·h/mL
same,Vd,"[5]; intravenous, 3 mg/kg",0.819 L/kg
same,clearance,"[5]; intravenous, 3 mg/kg",6.57 mL/min/kg
same,half-life,"[5]; intravenous, 3 mg/kg",2.57 h
same,AUC,"[5]; oral, 5 mg/kg",7.49 µg·h/mL
same,Cmax,"[5]; oral, 5 mg/kg",2300 ng/mL
same,bioavailability,"[5]; oral, 5 mg/kg",59.2%
same,half-life,"[5]; oral, 5 mg/kg",2.38 h
